Assay results reported in ChEMBL document CHEMBL1201862, “PubChem BioAssay data set” (2004).
Calls of active or inactive are those of the source.

What was measured:
[1] = inhibitors of PGC1a acetylation in cells, dose response, cell-based, cherry-picked samples (AID 720514); format: functional;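 also: potency may reflect raised or lowered acetylation signal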
[2] = molecular target: E3 ubiquitin-protein ligase UHRF1 (Homo sapiens, UniProt Q96T88); assay: Counterscreen for inhibitors of 5-meCpG-binding domain protein 2 (MBD2): TRFRET-based biochemical high throughput dose response assay to identify inhibitors of binding of ubiquitin-like with PHD and ring finger domains 1 (UHRF1) to methylated oligonucleotide.
E3 ubiquitin-protein ligase UHRF1, sequence (Q96T88 whole entry, the tested form may be a part): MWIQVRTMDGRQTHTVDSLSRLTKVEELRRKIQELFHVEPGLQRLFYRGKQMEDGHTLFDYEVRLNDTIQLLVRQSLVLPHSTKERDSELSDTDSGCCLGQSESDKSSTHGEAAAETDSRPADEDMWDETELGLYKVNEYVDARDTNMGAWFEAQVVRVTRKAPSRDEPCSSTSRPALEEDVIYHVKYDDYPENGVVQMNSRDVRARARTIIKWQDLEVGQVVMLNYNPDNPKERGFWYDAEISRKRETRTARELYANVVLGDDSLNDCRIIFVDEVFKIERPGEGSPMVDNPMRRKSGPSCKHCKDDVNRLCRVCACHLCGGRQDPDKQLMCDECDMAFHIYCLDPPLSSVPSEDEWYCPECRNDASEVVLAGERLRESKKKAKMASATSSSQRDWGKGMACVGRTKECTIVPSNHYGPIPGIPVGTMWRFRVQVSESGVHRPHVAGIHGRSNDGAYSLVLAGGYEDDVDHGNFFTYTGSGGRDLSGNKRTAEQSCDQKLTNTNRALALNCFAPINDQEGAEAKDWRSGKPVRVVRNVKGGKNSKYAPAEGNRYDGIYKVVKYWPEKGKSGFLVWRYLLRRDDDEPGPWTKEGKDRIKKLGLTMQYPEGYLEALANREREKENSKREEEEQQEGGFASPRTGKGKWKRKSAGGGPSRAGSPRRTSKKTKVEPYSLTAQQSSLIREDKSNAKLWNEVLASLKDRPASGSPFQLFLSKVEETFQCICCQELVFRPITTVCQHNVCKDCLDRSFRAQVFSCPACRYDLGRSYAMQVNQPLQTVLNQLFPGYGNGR

[3] = cytotoxicity in MIN6 insulinoma cells, dose response, cytotoxicity control, cell-based, mouse insulinoma (AID 2122); format: functional;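 also: confirmatory high-throughput counterscreen run to flag cytotoxic compounds; mouse MIN-6 beta cells carrying an insulin promoter eGFP reporter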
[4] = insulin promoter down-regulators in MIN6 cells, imaging, high-content screening, mouse beta cells (AID 1628); format: functional
INS1 = assay: beta cell apoptosis inhibitors, cytokine rescue, dose response, luminescence, retest (AID 449756); format: functional, cell-based; conditions: Rattus norvegicus;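 also: cell death triggered by IL-1 beta plus TNF-alpha plus IFN-gamma mixture; protective hits raise ATP signal compared with cytokine alone wells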
[5] = Late-stage results from the probe development effort to identify antagonists of arginine vasopressin receptor 1a (AVPR1a): fluorescence-based cell-based dose response AVPR1a inhibition assay.; format: functional
Vasopressin V2 receptor = Vasopressin V2 receptor (Homo sapiens, UniProt P30518); assay: Late-stage results from the probe development effort to identify antagonists of arginine vasopressin receptor 1a (AVPR1a): fluorescence-based cell-based dose response AVPR2 inhibition counterscreen assay.; format: functional
Vasopressin V2 receptor, sequence (P30518 whole entry): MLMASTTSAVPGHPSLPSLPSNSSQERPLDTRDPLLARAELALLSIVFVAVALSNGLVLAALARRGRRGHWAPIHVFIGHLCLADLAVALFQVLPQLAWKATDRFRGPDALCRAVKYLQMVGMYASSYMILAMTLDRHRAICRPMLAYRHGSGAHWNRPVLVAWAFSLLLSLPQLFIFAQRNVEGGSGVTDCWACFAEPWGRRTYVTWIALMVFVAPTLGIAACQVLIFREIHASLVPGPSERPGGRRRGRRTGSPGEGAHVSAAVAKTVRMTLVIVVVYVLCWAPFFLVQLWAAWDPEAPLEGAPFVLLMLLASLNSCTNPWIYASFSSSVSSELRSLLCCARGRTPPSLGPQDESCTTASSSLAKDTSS

[6] = Late-stage results from the probe development effort to identify antagonists of arginine vasopressin receptor 1a (AVPR1a): fluorescence-based cell-based dose response OXTR inhibition counterscreen assay.; format: functional
Vasopressin V1b receptor = Vasopressin V1b receptor (Homo sapiens, UniProt P47901); assay: Late-stage results from the probe development effort to identify antagonists of arginine vasopressin receptor 1a (AVPR1a): fluorescence-based cell-based dose response AVPR1b inhibition counterscreen assay.; format: functional
Vasopressin V1b receptor, sequence (P47901 whole entry): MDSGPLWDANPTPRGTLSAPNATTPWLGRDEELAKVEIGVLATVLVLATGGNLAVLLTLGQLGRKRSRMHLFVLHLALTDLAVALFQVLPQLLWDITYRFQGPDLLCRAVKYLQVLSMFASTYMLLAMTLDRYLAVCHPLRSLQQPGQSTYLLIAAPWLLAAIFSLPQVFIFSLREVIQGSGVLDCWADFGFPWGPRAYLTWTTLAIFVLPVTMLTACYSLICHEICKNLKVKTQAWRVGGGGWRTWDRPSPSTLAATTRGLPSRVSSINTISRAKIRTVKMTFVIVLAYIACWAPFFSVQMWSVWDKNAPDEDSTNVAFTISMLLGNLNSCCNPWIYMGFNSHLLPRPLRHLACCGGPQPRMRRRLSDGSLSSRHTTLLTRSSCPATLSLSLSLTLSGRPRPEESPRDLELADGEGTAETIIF

Bcl-2-like protein 10 = Bcl-2-like protein 10 (Homo sapiens, UniProt Q9HD36); assay: displacers of TR3 peptide from Bcl-B, primary screen, selectivity assay for Bfl-1 inhibitor project, biochemical, fluorescence polarization, FITC-TR3 peptide (AID 748);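 also: fluorescence polarization from a fluorescein-labelled TR3 peptide binding purified Bcl-B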
Bcl-2-like protein 10, sequence (Q9HD36 whole entry): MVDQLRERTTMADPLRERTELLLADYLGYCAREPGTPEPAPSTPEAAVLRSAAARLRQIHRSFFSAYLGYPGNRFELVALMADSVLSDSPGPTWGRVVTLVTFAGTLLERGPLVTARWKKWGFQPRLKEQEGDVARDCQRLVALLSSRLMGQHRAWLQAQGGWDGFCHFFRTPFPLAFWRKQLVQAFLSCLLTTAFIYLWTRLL

[7] = Artemis endonuclease inhibitor potency, dose response, biochemical, fluorescence intensity (AID 720701); format: functional;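 also: Artemis endonuclease enzyme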
[8] = molecular target: Induced myeloid leukemia cell differentiation protein Mcl-1 (Homo sapiens, UniProt Q07820); format: functional
Induced myeloid leukemia cell differentiation protein Mcl-1, sequence (Q07820 whole entry): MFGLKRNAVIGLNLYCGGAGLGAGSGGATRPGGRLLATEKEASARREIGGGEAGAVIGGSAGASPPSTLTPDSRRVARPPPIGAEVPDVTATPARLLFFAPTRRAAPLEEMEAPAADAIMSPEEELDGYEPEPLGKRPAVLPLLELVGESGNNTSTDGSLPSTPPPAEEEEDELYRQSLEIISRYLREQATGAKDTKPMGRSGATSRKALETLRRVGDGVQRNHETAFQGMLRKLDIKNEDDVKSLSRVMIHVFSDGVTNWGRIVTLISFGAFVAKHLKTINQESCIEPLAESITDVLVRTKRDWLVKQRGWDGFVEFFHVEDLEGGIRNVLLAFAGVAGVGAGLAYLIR

Genome polyprotein = Genome polyprotein (dengue virus type 2, UniProt P29990); assay: Dengue-2 NS5 methyltransferase inhibitors, primary screen, biochemical, confirmation dose response (AID 588689); format: functional
Genome polyprotein, sequence (P29990 2492-3391 limits assumed): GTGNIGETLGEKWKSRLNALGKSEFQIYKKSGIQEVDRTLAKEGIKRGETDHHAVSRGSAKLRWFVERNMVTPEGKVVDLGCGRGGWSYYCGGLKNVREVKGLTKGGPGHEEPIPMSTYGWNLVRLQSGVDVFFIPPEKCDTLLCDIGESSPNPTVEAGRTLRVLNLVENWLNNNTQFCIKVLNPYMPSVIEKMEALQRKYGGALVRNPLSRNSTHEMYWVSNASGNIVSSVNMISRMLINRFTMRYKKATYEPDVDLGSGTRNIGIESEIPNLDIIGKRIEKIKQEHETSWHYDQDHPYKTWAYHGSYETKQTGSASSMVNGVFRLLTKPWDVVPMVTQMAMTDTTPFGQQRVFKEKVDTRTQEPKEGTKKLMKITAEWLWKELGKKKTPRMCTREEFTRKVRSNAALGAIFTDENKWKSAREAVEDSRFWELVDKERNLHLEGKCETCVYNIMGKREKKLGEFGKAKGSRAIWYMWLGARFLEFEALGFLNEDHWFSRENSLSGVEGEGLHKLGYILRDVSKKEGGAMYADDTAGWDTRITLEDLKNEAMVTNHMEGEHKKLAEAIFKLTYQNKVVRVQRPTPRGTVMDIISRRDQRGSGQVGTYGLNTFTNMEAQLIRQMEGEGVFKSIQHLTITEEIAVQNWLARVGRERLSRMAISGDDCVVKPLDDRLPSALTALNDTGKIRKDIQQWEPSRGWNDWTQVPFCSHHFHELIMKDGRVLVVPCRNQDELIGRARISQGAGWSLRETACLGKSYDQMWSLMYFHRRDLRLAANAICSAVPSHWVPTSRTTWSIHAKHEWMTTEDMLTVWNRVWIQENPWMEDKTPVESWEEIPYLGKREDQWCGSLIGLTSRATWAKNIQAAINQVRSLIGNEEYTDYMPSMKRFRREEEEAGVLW

[9] = molecular target: E3 ubiquitin-protein ligase XIAP (Homo sapiens, UniProt P98170); assay: Counter Screen using XIAP-Bir3 for Chemical Antagonists of Bir1/2 domains of IAP-family anti-apoptotic proteins. [Related pubchem assays (depositor defined):AID1018, AID1449, AID1514, AID1638, AID1749, AID1750, AID488957, AID488963]
E3 ubiquitin-protein ligase XIAP, sequence (P98170 whole entry): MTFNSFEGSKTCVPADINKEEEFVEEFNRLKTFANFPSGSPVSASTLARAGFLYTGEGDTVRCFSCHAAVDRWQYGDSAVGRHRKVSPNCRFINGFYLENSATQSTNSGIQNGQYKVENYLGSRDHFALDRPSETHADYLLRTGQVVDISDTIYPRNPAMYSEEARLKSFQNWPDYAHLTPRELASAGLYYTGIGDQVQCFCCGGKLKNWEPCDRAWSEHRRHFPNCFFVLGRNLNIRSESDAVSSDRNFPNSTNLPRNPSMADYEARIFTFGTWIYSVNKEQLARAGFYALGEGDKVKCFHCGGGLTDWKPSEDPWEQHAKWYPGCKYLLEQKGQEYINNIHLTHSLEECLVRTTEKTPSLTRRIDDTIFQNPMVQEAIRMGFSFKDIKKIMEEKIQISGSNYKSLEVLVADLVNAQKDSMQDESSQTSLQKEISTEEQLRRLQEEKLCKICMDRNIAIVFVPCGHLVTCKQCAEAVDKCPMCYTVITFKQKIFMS

Caspase-6 = Caspase-6 (Homo sapiens, UniProt P55212); assay: human caspase-6 inhibitors, dose response, biochemical, VEID-R110 fluorescence, cherry-pick (AID 720632)
Caspase-6, sequence (P55212 24-179 limits assumed): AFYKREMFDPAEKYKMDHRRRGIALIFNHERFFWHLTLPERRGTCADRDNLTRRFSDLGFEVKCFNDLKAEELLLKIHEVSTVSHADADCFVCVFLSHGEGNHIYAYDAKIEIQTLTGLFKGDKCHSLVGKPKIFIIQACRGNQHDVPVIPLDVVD
Caspase-6, sequence (P55212 194-293 limits assumed): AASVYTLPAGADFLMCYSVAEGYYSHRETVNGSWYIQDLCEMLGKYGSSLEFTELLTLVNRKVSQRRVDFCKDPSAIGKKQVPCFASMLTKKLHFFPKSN

Aminopeptidase N = molecular target: T1, Aminopeptidase N (Plasmodium falciparum FcB1/Columbia, UniProt O96935); assay: P. falciparum M1AAP inhibitors, biochemical, fluorogenic H-Leu-NHMec substrate, 1536-well (AID 1445); design: species or system Plasmodium falciparum 3D7, 3D7
T1 sequence (O96935 whole entry): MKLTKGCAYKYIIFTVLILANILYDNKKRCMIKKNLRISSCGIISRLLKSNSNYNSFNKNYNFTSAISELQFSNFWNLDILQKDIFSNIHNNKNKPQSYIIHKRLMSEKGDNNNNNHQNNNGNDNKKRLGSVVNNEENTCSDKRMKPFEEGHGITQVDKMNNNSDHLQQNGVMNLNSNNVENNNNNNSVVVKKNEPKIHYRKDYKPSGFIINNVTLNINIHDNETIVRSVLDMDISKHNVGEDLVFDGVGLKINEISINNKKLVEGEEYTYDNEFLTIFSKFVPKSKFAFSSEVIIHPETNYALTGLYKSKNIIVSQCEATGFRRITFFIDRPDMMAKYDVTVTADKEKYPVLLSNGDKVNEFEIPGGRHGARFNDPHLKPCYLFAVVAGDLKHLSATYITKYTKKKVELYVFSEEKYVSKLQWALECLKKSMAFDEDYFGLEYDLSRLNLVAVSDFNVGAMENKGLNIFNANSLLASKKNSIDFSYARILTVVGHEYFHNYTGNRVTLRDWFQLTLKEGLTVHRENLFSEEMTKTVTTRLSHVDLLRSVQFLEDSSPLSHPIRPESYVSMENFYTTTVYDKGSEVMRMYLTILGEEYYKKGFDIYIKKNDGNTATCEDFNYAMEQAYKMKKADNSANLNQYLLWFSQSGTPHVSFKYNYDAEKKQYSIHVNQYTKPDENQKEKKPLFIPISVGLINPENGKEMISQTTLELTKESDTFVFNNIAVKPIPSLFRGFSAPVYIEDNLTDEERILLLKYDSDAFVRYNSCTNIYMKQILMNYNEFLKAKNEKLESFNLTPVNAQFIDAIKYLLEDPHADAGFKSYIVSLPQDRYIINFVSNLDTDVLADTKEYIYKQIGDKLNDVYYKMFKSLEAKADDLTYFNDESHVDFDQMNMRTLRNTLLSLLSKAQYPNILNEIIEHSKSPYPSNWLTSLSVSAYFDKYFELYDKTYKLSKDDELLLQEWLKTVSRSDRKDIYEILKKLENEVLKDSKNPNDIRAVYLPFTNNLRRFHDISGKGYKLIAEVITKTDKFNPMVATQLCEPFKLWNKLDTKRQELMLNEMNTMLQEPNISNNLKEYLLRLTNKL

[10] = molecular target: Bifunctional protein GlmU (Mycobacterium tuberculosis, UniProt P9WMN3); assay: Inhibitors of Mycobacterial Glucosamine-1-phosphate acetyl transferase (GlmU). Secondary screen.; design: species or system Mycobacterium tuberculosis H37Rv
Bifunctional protein GlmU, sequence (P9WMN3 whole entry): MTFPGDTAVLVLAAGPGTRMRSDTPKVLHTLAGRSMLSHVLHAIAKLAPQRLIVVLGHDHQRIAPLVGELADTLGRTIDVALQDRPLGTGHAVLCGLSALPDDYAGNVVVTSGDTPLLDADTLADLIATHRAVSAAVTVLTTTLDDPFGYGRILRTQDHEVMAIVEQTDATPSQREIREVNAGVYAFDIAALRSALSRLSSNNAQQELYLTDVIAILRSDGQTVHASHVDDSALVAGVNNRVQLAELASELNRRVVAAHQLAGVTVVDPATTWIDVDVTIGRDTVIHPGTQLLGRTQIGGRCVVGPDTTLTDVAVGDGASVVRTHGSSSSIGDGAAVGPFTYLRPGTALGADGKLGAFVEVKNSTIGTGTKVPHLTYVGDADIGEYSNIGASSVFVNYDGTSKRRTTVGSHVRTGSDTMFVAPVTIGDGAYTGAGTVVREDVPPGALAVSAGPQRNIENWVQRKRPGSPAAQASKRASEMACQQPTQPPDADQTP

[11] = molecular target: T2, Long-chain-fatty-acid--AMP ligase FadD28 (Mycobacterium tuberculosis, UniProt P9WQ59); assay: Fluorescence polarization aasay to screen for inhibitors that compete for the binding of FadD28 to a bisubstrate Measured in Biochemical System Using Plate Reader - 2147-01_Inhibitor_Dose_CherryPick_Activity.; format: functional, Mycobacterium tuberculosis H37Rv
T2 sequence (P9WQ59 whole entry): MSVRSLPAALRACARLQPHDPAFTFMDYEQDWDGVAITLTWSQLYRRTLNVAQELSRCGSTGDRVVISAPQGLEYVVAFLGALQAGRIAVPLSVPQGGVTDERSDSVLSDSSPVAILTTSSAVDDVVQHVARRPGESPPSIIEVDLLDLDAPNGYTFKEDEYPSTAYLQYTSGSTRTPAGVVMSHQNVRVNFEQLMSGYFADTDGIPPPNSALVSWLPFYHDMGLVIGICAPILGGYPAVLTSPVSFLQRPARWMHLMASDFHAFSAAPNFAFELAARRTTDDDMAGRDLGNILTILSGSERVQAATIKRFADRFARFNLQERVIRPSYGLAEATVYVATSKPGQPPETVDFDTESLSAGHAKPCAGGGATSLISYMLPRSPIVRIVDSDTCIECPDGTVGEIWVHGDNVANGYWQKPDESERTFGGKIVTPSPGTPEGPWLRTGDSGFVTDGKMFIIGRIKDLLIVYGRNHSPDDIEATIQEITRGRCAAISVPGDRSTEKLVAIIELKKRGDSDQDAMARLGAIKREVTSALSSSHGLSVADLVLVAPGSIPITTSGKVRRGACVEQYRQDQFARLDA

CCOc1ccc(N2C(=O)Cc3ccccc3C2=O)cc1
AC50 [1]: 32.7 µM (active)

[O-][Cl+3]([O-])([O-])[O-].c1ccc(-c2cc(-c3ccccc3)[n+](-c3ccccc3)c(-c3ccccc3)c2)cc1
IC50 [2]: 14.3 µM (inactive) | IC50 [3]: 1.77 µM (active) | IC50 [4]: 1.06 µM (active) | AC50 (INS1): 2.59 µM (active)

O=C(C1CCN(c2ncccc2C(F)(F)F)CC1)N(CC1CC1)c1ccc(Cl)cc1
IC50 [5]: 0.084 µM (active) | IC50 (Vasopressin V2 receptor): 5.91 µM (active) | IC50 [6]: 0.8 µM (active) | IC50 (Vasopressin V1b receptor): 5.93 µM (active)

COc1ccc(C(=O)Nc2ccc(N3CCCC3)cc2)cc1
IC50 (Bcl-2-like protein 10): 41.9 µM (active) | IC50 [7]: 16.2 µM (active) | IC50 [8]: 3.44 µM (active)

O=C(Nc1cccc(Oc2ccc(C(=O)O)c(C(=O)O)c2)c1)c1ccc(-c2ccccc2)cc1
IC50 (Genome polyprotein): 20.5 µM (active) | IC50 [9]: > 20 µM (inactive) | AC50 (Caspase-6): 15.7 µM (active) | IC50 [8]: 4.44 µM (active) | IC50 (Aminopeptidase N): 44.7 µM (active) | IC50 [10]: 147 µM (active) | AC50 [11]: 82.4 µM (active)
